From patent US10391070B2, “Compositions and methods for treating neurological diseases or injury” (MUSC FOUNDATION FOR RESEARCH DEVELOPMENT, priority 2012, dated 2019)

How the values were obtained:
[1] = Antioxidant activity assay (DPPH free radical scavenging); conditions: 20 μM, 100 μM DPPH in methanol
Experimental: Antioxidant activity of various reagents was assayed as previously described by monitoring the disappearance of the optical absorbance of the stable-free radical DPPH on reaction with test compounds (Blois, 1958). The rate of the reaction represents the antioxidant potency of test agents. The known free radical scavenger Trolox and ascorbic acid were used as positive controls. Briefly, 10 μL of test reagents at final concentrations of 20 μM were added to 200 μL of 100 μM DPPH in methanol. Optical absorbance of DPPH at 517 nm was immediately monitored for 10 min.

PTZ-induced seizures = assay: PTZ-induced seizure (swim activity) model in zebrafish larvae; assay type: in vivo, zebrafish (Danio rerio)
Experimental: The DanioVision locomotion tracking instrument with Ethovision XT software (Noldus) was used to measure the severity of the seizures by quantifying the locomotor activity of each fish.
In a 48-well plate, one 6-7 dpf larva was added per well. Compounds were given at a sub-lethal dose and treated for 1 h. Three control rows were included—tank water (TW) only, PTZ only and PTZ+VPA (2-4 mM final concentration of VPA). […] After 5 min, the plate was transferred to the Daniovision apparatus and the chamber light was turned on. After 2 min, Ethovision was used to determine the distance traveled (a marker of seizure of activity) by each fish for 15 min (25 frames per second). Velocity, duration of movement, and frequency of movement were also determined from the same recording. After measurement, fish were monitored visually for survival. The distance moved over the recording period with Ethovision XT software (Noldus) was averaged over 8 wells per treatment unless the fish was not detected.
In a 48-well plate, one 7 dpf zebrafish was added per well. Larvae were dosed with each compound at a sub-lethal dose 1 h prior to PTZ treatment. Three control rows were included with each experiment—tank water only control, PTZ only and PTZ+VPA (4 mM final concentration of VPA). […] After 5 min, the plate was transferred to the Daniovision instrument (Noldus Information Technology) and the chamber light was turned on. After 2 min, MediaRecorder (Noldus) was used to record video for 15 min. A small number of videos were acquired 25 frames per second, but the majority of the data was acquired at the frame rate of 60 frames per second. After recording, fish were monitored visually for survival. Ethovision XT software (Noldus) was used to track the fish movement from the video images in order to calculate the total distance traveled over 15 min. […] All experimental comparisons were made between animals from the same clutch.

c-fos = c-fos gene expression in PTZ-treated zebrafish larvae; assay type: in vivo, zebrafish (Danio rerio); conditions: 7 dpf zebrafish, pre-treatment
Experimental: Ten 7 dpf larvae were placed in 500 μL tank water in wells of a 48-well cell-culture plate and appropriate concentrations of drugs were added as in the behavior study (Table 9). After a 1 h pre-incubation period, PTZ was added to a final concentration of 15 mM in appropriate wells and larvae were incubated for a further 45 min. Fish were quickly euthanized by incubating the plate in an ice-water bath for 15 min. Fish were removed from each well and all liquid removed before freezing at −80° C. RNA was extracted using Trizol (Invitrogen) followed by the RNeasy Mini kit (Qiagen). Frozen embryos were homogenized in 800 μL Trizol using in-tube pestles and a motorized homogenizer. Following a 5-min incubation at room temperature, 200 μL chloroform was added and the samples were centrifuged at 12,000 g for 10 min. The aqueous phase was transferred to a new tube and 250 μL 100% ethanol was added and the samples mixed. This mixture was then transferred to the Qiagen minicolumn assembly and the protocol followed as described with the kit. Samples were eluted in 30 μL RNase free water and concentration was determined using the Nanodrop instrument (Thermo Fisher). cDNA was prepared using the RETROscript kit (Ambion) with 500 ng total RNA. cDNA was then diluted 1:1 with sterile dH2O and 2.5 μL of this cDNA was used in the QPCR reaction with SsoAdvanced SYBR Green Supermix (BioRad) and c-fos primers designed to span an intron-exon junction (c-fos F: […], SEQ ID NO:9; c-fos R: […], SEQ ID NO:10) ([…] each) in the BioRad CFX96 RealTime instrument. L13a and EF1a gene expression were used for normalization (Rahn et al., 2013). The following cycle conditions were used: 95° C./3 min, 40 cycles of 95° C./15 s, 62° C./30 s, followed by 95° C. 30 s and a dissociation curve. Samples were run in duplicate. The 2^−ΔΔCt method was used to quantify gene expression, whereby all gene Ct values were first normalized to Ct values of the geometric mean of the Ct of L13a and EF1a (Livak and Schmittgen, 2001). Treated samples were then normalized to the tank water control and converted to fold change.

zebrafish larvae = assay: Zebrafish larval toxicity (NOEC, lethal dose); assay type: in vivo; conditions: 7 dpf zebrafish larvae; highest sub-lethal dose
Experimental: Using a 96-well plate, one zebrafish larva (7 dpf) was placed in each well in 100 μL of tank water (TW). 100 μL of each compound (0.5-15 μM) was then added to each well for 12 animals (one row) to give a final volume of 200 […]. A control row was tested for DMSO toxicity effects. […] Each drug was assessed for the no observed effect concentration (NOEC), the highest non-lethal dose resulting in no apparent toxic effects.
Zebrafish (AB strain) were obtained from the Zebrafish International Resource Center (supported by P40 RR012546 from NIH-NCRR). Zebrafish were maintained and crossed according to standard methods (Westerfield, 2000). Fertilized eggs were collected and placed in E3 embryo medium and positioned in an incubator set at 28.5° C. with a 14/10 h light/dark cycle (Kimmel et al., 1995). To determine the lethal dose of each compound, 96-well plates containing one zebrafish (7 days post-fertilization, dpf) per well in 100 μL of tank water were used. 100 μL of each compound (0.5 to 15 μM) was added to each well for 12 animals (one row) for a final volume of 200 μL. One row of larvae was used as DMSO only controls. […] All zebrafish studies were approved by the Medical University of South Carolina Institutional Animal Care and Use Committee (AR #2850) and performed in accordance with the guidelines.
Using a 96-well plate, one zebrafish larva (7 dpf) was placed in each well in 100 μL of tank water. 100 μL of each compound was then added to each well for 12 animals (one row) for a final volume of 200 μL. One row of zebrafish larvae was used as DMSO only controls. […] Toxicity was also measured in the mouse model by the NIH Anticonvulsant Screening Program at the National Institute of Neurological Disorders and Stroke (Stables and Kupferberg, 1997), according to the established NIH experimental procedures. Compounds were delivered into mice by intraperitoneal (i.p.) injection at a dose of 100 mg/kg in sterile 5% DMSO, 95% Neobee (Josey et al., 2013). Acute toxicity was assessed by monitoring the animals for impaired neuromuscular function by placing treated mice on a rod rotating at 6 rpm. […]

HT22 cells [2] = assay: t-BuOOH toxicity protection (MTS cell viability); assay type: cell-based, mouse; conditions: HT22, 50 μM t-BuOOH
Experimental: Cell viability was assessed by the ability of the viable cells to metabolize 3-(4,5-dimethylthiazol-2-yl)-5-(3-carboxymethoxyphenyl)-2(4-sulfophenyl)2-H-tetrazolium, inner salt (MTS), as described previously (Cory et al., 1991). The metabolism of tetrazolium salts is often used to measure cellular proliferation, but in the system used here, it has been previously shown to correlate well with cell viability as determined by trypan blue exclusion and colony-forming assays (Davis and Maher, 1994). Briefly, HT-22 cells were seeded onto 96-well plates at 5.0×10^3 cells per well in 75 μL of medium and maintained at 37° C. in 5% CO2 overnight prior to the initiation of experimental treatments. For glutamate toxicity testing, cells were subsequently treated with 25 μL of medium containing glutamate (monosodium glutamate, Sigma, 1 M stock concentration in media, to achieve a final concentration of 10 mM) plus inhibitors (stock in DMSO) and maintained at 37° C. in 5% CO2. For t-BuOOH toxicity testing, cells were subsequently treated with 25 μL of medium containing t-BuOOH (Sigma, 10 mM stock concentration, to achieve a final concentration of 50 μM) plus inhibitors (stock in DMSO) and maintained at 37° C. in 5% CO2 for 3 hours, after which the media was removed, cells washed gently with HBSS, the media replaced with standard culture media, and the cells returned to incubation at 37° C. in 5% CO2. For both glutamate and t-BuOOH treatments, 10 μl of MTS solution was added to each well 24 hrs after initial treatment, and the cells were maintained in growth medium for 2 h at 37° C. Absorbance at 490 nm was subsequently measured by a SpectraMax 190 plate reader (Molecular Devices). The growth medium without cells in the presence of MTS solution was used as solution background and untreated cells were considered the controls. Cell viability was calculated as a percentage compared with untreated controls. EC50 determinations were based on 12-point titrations using GraphPad Prism, and each experiment was repeated at least four times. Morphology of HT22 cells following treatments was determined by phase-contrast microscopy. Digital images of cells grown on cell culture plates were captured at 10× magnification.
In light of the findings that the protection against glutamate induced cell death provided by VK2, 2q, and 2j, are at least partially mediated by the attenuation of the increased production of endogenous ROS, the inventors also examined the effects of these compounds on tert-butylhydroperoxide (t-BuOOH) induced cell death. t-BuOOH is a short chain analog of the lipid hydroperoxides formed from peroxidation reactions during oxidative stress that is cytotoxic to cells (Lemasters and Nieminen, 1997). […] It is well documented that cells undergo rapid and extensive fragmentation in the early stages of cell death (Bossy-Wetzel et al., 2003; Frank et al., 2001; Breckenridge et al., 2008; Jagasia et al., 2005; Lee et al., 2004). Recent studies have shown that mitochondrial fragmentation is regulated by the translocation of dynamin-related protein 1 (Drp1) from the cytosol to the mitochondria, where it assembles to form spirals at division sites (Smirnova et al., 2001). Although the exact molecular mechanism is still not well studied, the activity of Drp1 is regulated by the phosphorylation and dephosphorylation of specific serine residues by protein kinases and phosphatases such as calcineurin and the PGAM5 (Wang et al., 2012; Chang et al., 2007). […]

HT22 cells [3] = assay: Glutathione determination in glutamate-treated cells; assay type: cell-based, mouse; conditions: HT22, 10 mM glutamate 8 hrs
Experimental: The content of total glutathione (reduced and oxidized) in the supernatant of cell homogenate was measured using the glutathione assay kit (Cayman Chemical) in microtiter plate assay, which utilizes an enzymatic recycling method, using glutathione reductase, for the quantification of glutathione. The sulfhydryl group of glutathione reacted with 5,5′-dithiobis-2-nitrobenzoic acid (DTNB) and produced a yellow-colored 5-thio-2-nitrobenzoic acid (TNB), which was measured at 405 nm.

HT-22 neuronal cells = assay: Respirometry (OCR, ECAR; Seahorse XF-96); assay type: cell-based, mouse; design: ECAR (glycolysis), difference from control: unit not given here; conditions: HT-22 cells, mean±SEM
Experimental: Oxygen consumption rates (OCR) and extracellular acidification rates (ECAR) of HT-22 neuronal cells were performed on the XF-96 Extracellular Flux Analyzer (Seahorse Bioscience) using standard methods (Beeson et al., 2010). In brief, cells were cultured in 96 well Seahorse plates in DMEM high glucose media (Invitrogen) supplemented with 10% FBS, 10 mM HEPES, and 1% antibiotic-antimycotic (Invitrogen). The media was replaced with DMEM media supplemented with 25 mM glucose, 10 mM sodium pyruvate, 31 mM NaCl, and 2 mM glutamine at pH 7.4. Each of the four drug ports on the Seahorse sensor cartridge were filled with test compound (media only, 5 μM NQN-1, 10 μM VK3 or 12.5 μM MB), 10 μM oligomycin, 1 μM FCCP, and 5 μM rotenone, which were injected into each well at 20, 80, 110, and 135 min, respectively. The pmol/min OCR rate for each well (9-52 wells/group) was measured. Wells were excluded from the analysis if their OCR values surpassed the Tukey Outlier Rule. In order to standardize the OCR rates across wells, the average OCR value at 17 min (last time point prior to injection of the test compounds) for each experimental group was calculated, and set to 100. All OCR values are given as a percentage of this pre-treatment value. […]

O=C1O[C@H]([C@@H](O)CO)C(O)=C1O [ascorbic acid]
free radical scavenging capacity (DPPH absorbance) [1]: rapidly scavenged DPPH

CCCC(CCC)C(=O)O [Valproic Acid (VPA), 2-n-propylpentanoic acid]
required concentration for reduction of seizures (PTZ-induced seizures; PTZ-treated zebrafish larvae): 4 mM | Seizure suppression (PTZ-induced seizures; PTZ-treated zebrafish larvae, pretreated 1 hr at NOEC): Yes | PTZ-induced swim activity (distance traveled) (PTZ-induced seizures; zebrafish larvae, 1 h pretreatment at sub-lethal concentration (VPA 4 mM, NQN-1 3 μM), 15 mM PTZ): significantly reduced distance traveled compared to PTZ alone | PTZ-induced increase in c-fos expression (c-fos): able to blunt this increase in expression | Highest concentration tested for anti-seizure activity (zebrafish larvae): 4 mM

COC1=C(OC)C(=O)C(C/C=C(\C)CC/C=C(\C)CC/C=C(\C)CC/C=C(\C)CC/C=C(\C)CC/C=C(\C)CC/C=C(\C)CC/C=C(\C)CC/C=C(\C)CCC=C(C)C)=C(C)C1=O [co-enzyme Q10]
protection from t-BuOOH induced cell death (HT22 cells [2]): less effective

COC1=C(OC)C(=O)C(CCCCCCCCCCO)=C(C)C1=O [Ideb, Idebenone]
depletion of total cellular GSH (HT22 cells [3]; 5 μM): did not prevent GSH depletion

CN(C)c1ccc2nc3ccc(=[N+](C)C)cc-3sc2c1.[Cl-] [MB, reference compound]
basal cellular respiration, difference in OCR from control (HT-22 neuronal cells; 1 h treatment, OCR as percentage of pre-treatment value): 53.21±5.92 | basal mitochondrial respiration, difference from control (HT-22 neuronal cells; basal minus non-mitochondrial (rotenone)): 19.22±6.54 | ATP-linked respiration, difference from control (HT-22 neuronal cells; basal minus oligomycin): 19.76±6.59 | ECAR (glycolysis), difference from control (HT-22 neuronal cells): −0.86±1.26

CN1C(=O)C(Cc2c[nH]c3ccccc23)NC1=S (stereo not shown) [Nec-1, Necrostatin-1]
depletion of total cellular GSH (HT22 cells [3]; 50 μM): did not prevent GSH depletion
